Experimental data: ChEMBL document CHEMBL1671627, “Increasing trends in antimicrobial resistance among clinically important anaerobes and Bacteroides fragilis isolates causing nosocomial infections: emerging resistance to carbapenems” (2008)
Converted amounts (≈) assume the structure as drawn.

Assays:
[1] = test system: Bacteroides thetaiotaomicron; assay: Antibacterial activity against beta-lactamase producing Bacteroides thetaiotaomicron by CLSI agar dilution method; format: functional
Prevotella bivia [2] = assay: Antibacterial activity against Prevotella bivia assessed as susceptible isolates by CLSI agar dilution method; format: functional
Prevotella buccae [3] = assay: Antibacterial activity against Prevotella buccae by CLSI agar dilution method; format: functional; conditions: Segatella buccae
Prevotella buccae [4] = assay: Antibacterial activity against Prevotella buccae assessed as resistant isolates by CLSI agar dilution method; format: functional, Segatella buccae
[5] = test system: Peptostreptococcus anaerobius; assay: Antibacterial activity against beta-lactamase producing Peptostreptococcus anaerobius assessed as resistant isolates by CLSI agar dilution method; format: functional
[6] = test system: Prevotella melaninogenica; assay: Antibacterial activity against Prevotella melaninogenica assessed as resistant isolates by CLSI agar dilution method; format: functional
Clostridium septicum [7] = assay: Antibacterial activity against beta-lactamase producing Clostridium septicum by CLSI agar dilution method; format: functional
[8] = test system: Fusobacterium necrophorum; assay: Antibacterial activity against Fusobacterium necrophorum assessed as resistant isolates by CLSI agar dilution method; format: functional
Fusobacterium nucleatum [9] = assay: Antibacterial activity against Fusobacterium nucleatum by CLSI agar dilution method; format: functional
Clostridium tertium [10] = assay: Antibacterial activity against beta-lactamase producing Clostridium tertium assessed as susceptible isolates by CLSI agar dilution method; format: functional
[11] = test system: Peptostreptococcus anaerobius; assay: Antibacterial activity against beta-lactamase producing Peptostreptococcus anaerobius by CLSI agar dilution method; format: functional
Clostridium tertium [12] = assay: Antibacterial activity against beta-lactamase producing Clostridium tertium by CLSI agar dilution method; format: functional
[13] = test system: Bacteroides thetaiotaomicron; assay: Antibacterial activity against beta-lactamase producing Bacteroides thetaiotaomicron assessed as susceptible isolates by CLSI agar dilution method; format: functional
Fusobacterium varium [14] = assay: Antibacterial activity against Fusobacterium varium assessed as resistant isolates by CLSI agar dilution method; format: functional
Fusobacterium varium [15] = assay: Antibacterial activity against Fusobacterium varium assessed as susceptible isolates by CLSI agar dilution method; format: functional
Bacteroides caccae [16] = assay: Antibacterial activity against beta-lactamase producing Bacteroides caccae assessed as resistant isolates by CLSI agar dilution method; format: functional
Clostridium perfringens = assay: microbe, parasite or virus in culture; format: functional
Parvimonas micra [17] = assay: Antibacterial activity against beta-lactamase producing Micromonas micros by CLSI agar dilution method; format: functional
Clostridium septicum [18] = assay: Antibacterial activity against beta-lactamase producing Clostridium septicum assessed as resistant isolates by CLSI agar dilution method; format: functional
Prevotella intermedia [19] = assay: Antibacterial activity against Prevotella intermedia by CLSI agar dilution method; format: functional
Bacteroides fragilis [20] = assay: Antibacterial activity against Bacteroides fragilis by CLSI agar dilution method; format: functional
Prevotella intermedia [21] = assay: Antibacterial activity against Prevotella intermedia assessed as susceptible isolates by CLSI agar dilution method; format: functional
Finegoldia magna [22] = assay: Antibacterial activity against beta-lactamase producing Finegoldia magna assessed as resistant isolates by CLSI agar dilution method; format: functional
[23] = test system: Peptostreptococcus anaerobius; assay: Antibacterial activity against beta-lactamase producing Peptostreptococcus anaerobius assessed as susceptible isolates by CLSI agar dilution method; format: functional
Parvimonas micra [24] = assay: Antibacterial activity against beta-lactamase producing Micromonas micros assessed as susceptible isolates by CLSI agar dilution method; format: functional
Bacteroides uniformis [25] = assay: Antibacterial activity against beta-lactamase producing Bacteroides uniformis by CLSI agar dilution method; format: functional
Prevotella buccae [26] = assay: Antibacterial activity against Prevotella buccae assessed as susceptible isolates by CLSI agar dilution method; format: functional, Segatella buccae
Prevotella bivia [27] = assay: Antibacterial activity against Prevotella bivia by CLSI agar dilution method; format: functional
Phocaeicola vulgatus [28] = assay: Antibacterial activity against beta-lactamase producing Bacteroides vulgatus assessed as susceptible isolates by CLSI agar dilution method; format: functional
Prevotella bivia [29] = assay: Antibacterial activity against Prevotella bivia assessed as resistant isolates by CLSI agar dilution method; format: functional
[30] = test system: Fusobacterium necrophorum; assay: Antibacterial activity against Fusobacterium necrophorum by CLSI agar dilution method; format: functional
Bacteroides uniformis [31] = assay: Antibacterial activity against beta-lactamase producing Bacteroides uniformis assessed as susceptible isolates by CLSI agar dilution method; format: functional
Finegoldia magna [32] = assay: Antibacterial activity against beta-lactamase producing Finegoldia magna by CLSI agar dilution method; format: functional
[33] = test system: Clostridium paraputrificum; assay: Antibacterial activity against beta-lactamase producing Clostridium paraputrificum assessed as resistant isolates by CLSI agar dilution method; format: functional
Fusobacterium nucleatum [34] = assay: Antibacterial activity against Fusobacterium nucleatum assessed as resistant isolates by CLSI agar dilution method; format: functional
Phocaeicola vulgatus [35] = assay: Antibacterial activity against beta-lactamase producing Bacteroides vulgatus by CLSI agar dilution method; format: functional
Parvimonas micra [36] = assay: Antibacterial activity against beta-lactamase producing Micromonas micros assessed as resistant isolates by CLSI agar dilution method; format: functional
Veillonella parvula = assay: Antibacterial activity against Veillonella parvula by CLSI agar dilution method; format: functional
Fusobacterium mortiferum [37] = assay: Antibacterial activity against Fusobacterium mortiferum assessed as resistant isolates by CLSI agar dilution method; format: functional
[38] = test system: Clostridium paraputrificum; assay: Antibacterial activity against beta-lactamase producing Clostridium paraputrificum by CLSI agar dilution method; format: functional
[39] = test system: Prevotella melaninogenica; assay: Antibacterial activity against Prevotella melaninogenica by CLSI agar dilution method; format: functional
Finegoldia magna [40] = assay: Antibacterial activity against beta-lactamase producing Finegoldia magna assessed as susceptible isolates by CLSI agar dilution method; format: functional
Bacteroides caccae [41] = assay: Antibacterial activity against beta-lactamase producing Bacteroides caccae assessed as susceptible isolates by CLSI agar dilution method; format: functional
[42] = test system: Prevotella melaninogenica; assay: Antibacterial activity against Prevotella melaninogenica assessed as susceptible isolates by CLSI agar dilution method; format: functional
Bacteroides uniformis [43] = assay: Antibacterial activity against beta-lactamase producing Bacteroides uniformis assessed as resistant isolates by CLSI agar dilution method; format: functional
Phocaeicola vulgatus [44] = assay: Antibacterial activity against beta-lactamase producing Bacteroides vulgatus assessed as resistant isolates by CLSI agar dilution method; format: functional
[45] = test system: Clostridium paraputrificum; assay: Antibacterial activity against beta-lactamase producing Clostridium paraputrificum assessed as susceptible isolates by CLSI agar dilution method; format: functional
Fusobacterium mortiferum [46] = assay: Antibacterial activity against Fusobacterium mortiferum by CLSI agar dilution method; format: functional
Bacteroides caccae [47] = assay: Antibacterial activity against beta-lactamase producing Bacteroides caccae by CLSI agar dilution method; format: functional
[48] = test system: Fusobacterium necrophorum; assay: Antibacterial activity against Fusobacterium necrophorum assessed as susceptible isolates by CLSI agar dilution method; format: functional
Bacteroides fragilis [49] = assay: Antibacterial activity against Bacteroides fragilis assessed as resistant isolates by CLSI agar dilution method; format: functional
[50] = test system: Peptoniphilus asaccharolyticus; assay: Antibacterial activity against beta-lactamase producing Peptoniphilus asaccharolyticus assessed as susceptible isolates by CLSI agar dilution method; format: functional
Fusobacterium mortiferum [51] = assay: Antibacterial activity against Fusobacterium mortiferum assessed as susceptible isolates by CLSI agar dilution method; format: functional
Clostridium tertium [52] = assay: Antibacterial activity against beta-lactamase producing Clostridium tertium assessed as resistant isolates by CLSI agar dilution method; format: functional
Fusobacterium varium [53] = assay: Antibacterial activity against Fusobacterium varium by CLSI agar dilution method; format: functional
[54] = test system: Peptoniphilus asaccharolyticus; assay: Antibacterial activity against beta-lactamase producing Peptoniphilus asaccharolyticus by CLSI agar dilution method; format: functional
[55] = test system: Peptoniphilus asaccharolyticus; assay: Antibacterial activity against beta-lactamase producing Peptoniphilus asaccharolyticus assessed as resistant isolates by CLSI agar dilution method; format: functional
Bacteroides fragilis [56] = assay: Antibacterial activity against Bacteroides fragilis assessed as susceptible isolates by CLSI agar dilution method; format: functional
Prevotella intermedia [57] = assay: Antibacterial activity against Prevotella intermedia assessed as resistant isolates by CLSI agar dilution method; format: functional
Fusobacterium nucleatum [58] = assay: Antibacterial activity against Fusobacterium nucleatum assessed as susceptible isolates by CLSI agar dilution method; format: functional
Clostridium septicum [59] = assay: Antibacterial activity against beta-lactamase producing Clostridium septicum assessed as susceptible isolates by CLSI agar dilution method; format: functional
[60] = test system: Bacteroides thetaiotaomicron; assay: Antibacterial activity against beta-lactamase producing Bacteroides thetaiotaomicron assessed as resistant isolates by CLSI agar dilution method; format: functional

CO[C@@]1(NC(=O)CSCC#N)C(=O)N2C(C(=O)O)=C(CSc3nnnn3C)CS[C@@H]21 [CEFMETAZOLE]
MIC50 [1]: 32 µg/mL (≈ 67.9 µM)
MIC90 [1]: 64 µg/mL (≈ 136 µM)
Activity (Prevotella bivia [2]): 94%
MIC50 (Prevotella buccae [3]): 2 µg/mL (≈ 4.24 µM)
MIC90 (Prevotella buccae [3]): 8 µg/mL (≈ 17 µM)
Activity (Prevotella buccae [4]): 6%
Activity [5]: 0%
Activity [6]: 6%
MIC50 (Clostridium septicum [7]): 1 µg/mL (≈ 2.12 µM)
MIC90 (Clostridium septicum [7]): 16 µg/mL (≈ 33.9 µM)
Activity [8]: 0%
MIC50 (Fusobacterium nucleatum [9]): 1 µg/mL (≈ 2.12 µM)
MIC90 (Fusobacterium nucleatum [9]): 2 µg/mL (≈ 4.24 µM)
Activity (Clostridium tertium [10]): 89%
MIC50 [11]: 0.5 µg/mL (≈ 1.06 µM)
MIC90 [11]: 8 µg/mL (≈ 17 µM)
MIC50 (Clostridium tertium [12]): 1 µg/mL (≈ 2.12 µM)
MIC90 (Clostridium tertium [12]): 16 µg/mL (≈ 33.9 µM)
Activity [13]: 20%
Activity (Fusobacterium varium [14]): 0%
Activity (Fusobacterium varium [15]): 100%
Activity (Bacteroides caccae [16]): 30%
MIC50 (Clostridium perfringens): 1 µg/mL (≈ 2.12 µM)
MIC90 (Clostridium perfringens): 16 µg/mL (≈ 33.9 µM)
MIC50 (Parvimonas micra [17]): 0.5 µg/mL (≈ 1.06 µM)
MIC90 (Parvimonas micra [17]): 8 µg/mL (≈ 17 µM)
Activity (Clostridium septicum [18]): 0%
MIC50 (Prevotella intermedia [19]): 2 µg/mL (≈ 4.24 µM)
MIC90 (Prevotella intermedia [19]): 8 µg/mL (≈ 17 µM)
MIC50 (Bacteroides fragilis [20]): 16 µg/mL (≈ 33.9 µM)
MIC90 (Bacteroides fragilis [20]): 64 µg/mL (≈ 136 µM)
Activity (Prevotella intermedia [21]): 94%
Activity (Finegoldia magna [22]): 0%
Activity [23]: 97%
Activity (Parvimonas micra [24]): 97%
MIC50 (Bacteroides uniformis [25]): 32 µg/mL (≈ 67.9 µM)
MIC90 (Bacteroides uniformis [25]): 128 µg/mL (≈ 271 µM)
Activity (Prevotella buccae [26]): 94%
MIC50 (Prevotella bivia [27]): 2 µg/mL (≈ 4.24 µM)
MIC90 (Prevotella bivia [27]): 8 µg/mL (≈ 17 µM)
Activity (Phocaeicola vulgatus [28]): 44%
Activity (Prevotella bivia [29]): 6%
MIC50 [30]: 1 µg/mL (≈ 2.12 µM)
MIC90 [30]: 2 µg/mL (≈ 4.24 µM)
Activity (Bacteroides uniformis [31]): 44%
MIC50 (Finegoldia magna [32]): 0.5 µg/mL (≈ 1.06 µM)
MIC90 (Finegoldia magna [32]): 8 µg/mL (≈ 17 µM)
Activity [33]: 0%
Activity (Fusobacterium nucleatum [34]): 0%
MIC50 (Phocaeicola vulgatus [35]): 32 µg/mL (≈ 67.9 µM)
MIC90 (Phocaeicola vulgatus [35]): 128 µg/mL (≈ 271 µM)
Activity (Parvimonas micra [36]): 0%
MIC (Veillonella parvula): > 0.25 µg/mL
Activity (Fusobacterium mortiferum [37]): 0%
MIC50 [38]: 1 µg/mL (≈ 2.12 µM)
MIC90 [38]: 16 µg/mL (≈ 33.9 µM)
MIC50 [39]: 2 µg/mL (≈ 4.24 µM)
MIC90 [39]: 8 µg/mL (≈ 17 µM)
Activity (Finegoldia magna [40]): 97%
Activity (Bacteroides caccae [41]): 44%
Activity [42]: 94%
Activity (Bacteroides uniformis [43]): 30%
Activity (Phocaeicola vulgatus [44]): 30%
Activity [45]: 89%
MIC50 (Fusobacterium mortiferum [46]): 1 µg/mL (≈ 2.12 µM)
MIC90 (Fusobacterium mortiferum [46]): 2 µg/mL (≈ 4.24 µM)
MIC50 (Bacteroides caccae [47]): 32 µg/mL (≈ 67.9 µM)
MIC90 (Bacteroides caccae [47]): 128 µg/mL (≈ 271 µM)
Activity [48]: 100%
Activity (Bacteroides fragilis [49]): 13%
Activity [50]: 97%
Activity (Fusobacterium mortiferum [51]): 100%
Activity (Clostridium tertium [52]): 0%
MIC50 (Fusobacterium varium [53]): 1 µg/mL (≈ 2.12 µM)
MIC90 (Fusobacterium varium [53]): 2 µg/mL (≈ 4.24 µM)
MIC50 [54]: 0.5 µg/mL (≈ 1.06 µM)
MIC90 [54]: 8 µg/mL (≈ 17 µM)
Activity [55]: 0%
Activity (Bacteroides fragilis [56]): 72%
Activity (Prevotella intermedia [57]): 6%
Activity (Fusobacterium nucleatum [58]): 100%
Activity (Clostridium septicum [59]): 89%
Activity [60]: 17%
